The values that follow come from the OPERA property sets (Mansouri et al. 2018).

Converted amounts (≈) assume the structure as drawn.

The conditions of one series: 20 °C.
Usually solubility stands for the concentration that dissolves in the medium under given conditions. Lower therefore signals a poorly soluble substance. For `O=[N+]([O-])OCC(CO[N+](=O)[O-])O[N+](=O)[O-]`, the solubility is 6.08 mM (≈ 1.38 mg/mL). That is a millimolar value.

Take `O=C1c2c(O)cccc2[C@H]([C@@H]2O[C@H](CO)[C@@H](O)[C@H](O)[C@H]2O)c2cc(CO)cc(O)c21`: the solubility was 19.8 mM (≈ 8.3 mg/mL).

In the case of `O=C1CC2CC[C@H]1C2`, the solubility was 17.5 mM (≈ 1.93 mg/mL).

The series is the same for the next values; noted with them: 23 °C.
Regarding `Nc1ccc(N)cc1`, the solubility turned out to be 342 mM (≈ 37 mg/mL).

Still in this series, the particulars now being: 24 °C.
`Nc1cccc([N+](=O)[O-])c1` showed a solubility of 8.69 mM (≈ 1.2 mg/mL). That is a millimolar value.

Staying with this series, now noted: 25 °C.
In the case of `NC(=O)c1ccccc1`, the solubility worked out at 111 mM (≈ 13.5 mg/mL). That is a millimolar value.

In turn, `O=C1C[C@@H]2OCC=C3CN4CC[C@]56c7ccccc7N1[C@H]5[C@H]2[C@H]3C[C@H]46` showed a solubility of 0.478 mM (≈ 0.16 mg/mL).

As to `O=C(O)c1cccc(Cl)c1`, the solubility was 2.87 mM (≈ 0.45 mg/mL).

Consider `NC(N)=S`, for which the solubility was 1870 mM (≈ 142 mg/mL). Against the preceding compound, the solubility is about 650-fold higher.

Compound `O=Cc1ccccc1[N+](=O)[O-]` registered a solubility of 15.4 mM (≈ 2.32 mg/mL).

As for `O=C1NS(=O)(=O)c2ccccc21`, the solubility was determined as 21.8 mM (≈ 4 mg/mL).

`C=CC=O` registered a solubility of 3780 mM (≈ 212 mg/mL).

`O=Cc1cccc([N+](=O)[O-])c1`: the solubility was found to be 10.8 mM (≈ 1.63 mg/mL).

For `O=C(O)c1ccccc1Cl`, the solubility was 13.3 mM (≈ 2.09 mg/mL).

Compound `CCN(CC)C(=O)CCC(=O)O` showed a solubility of 161 mM (≈ 27.9 mg/mL).

Compound `CN1C2CCC1CC(OC(=O)c1ccccc1)C2` (stereo not drawn) showed a solubility of 6.93 mM (≈ 1.7 mg/mL).

`CCN1C[C@]2(COC)[C@H](O)C[C@H](OC)[C@]34C1[C@H]([C@H](OC)[C@H]23)[C@]1(OC(C)=O)[C@H]2[C@@H](OC(=O)c3ccccc3)[C@](O)(C[C@H]24)[C@@H](OC)[C@@H]1O` registered a solubility of 0.48 mM (≈ 0.31 mg/mL).

`O=C1c2cccc(S(=O)(=O)O)c2C(=O)c2cccc(S(=O)(=O)O)c21` came in with a solubility of 1810 mM (≈ 666 mg/mL). This solubility lies about 3800-fold higher than the previous one.

`CCCCCCCCCCC(C(=O)O)C(=O)O` displayed a solubility of 0.102 mM (≈ 0.025 mg/mL).

Compound `O=C1c2cccc(S(=O)(=O)O)c2C(=O)c2c1cccc2S(=O)(=O)O` registered a solubility of 18100 mM (≈ 6660 mg/mL).

On to `CC[C@H]1C[N@@]2CC[C@H]1C[C@H]2[C@H](O)c1ccnc2ccc(OC)cc12`, for which the solubility was found to be 0.888 mM (≈ 0.29 mg/mL). Compared with the last compound, the solubility is about 20000-fold lower.

`CC(=O)Oc1ccc2c3c1O[C@H]1[C@@H](OC(C)=O)C=C[C@H]4[C@@H](C2)N(C)CC[C@@]341` had a solubility of 1.61 mM (≈ 0.595 mg/mL).

`Cc1cc(O)c2c(O)c3c(O)cccc3cc2c1` yielded a solubility of 0.874 mM (≈ 0.21 mg/mL).
